Values of other authors in article PMC5959268 (Journal of medicinal chemistry, 2016).
Where a name gives a salt, the structure may show the parent alone. *1 amine or outer side, *2 acyl side, *3 side chain or, on linkers, in order; H or OH if unused. Where no end group is shown, it is not given here. [ ]: non-standard residue; d: D form. Tyr(125I) = tyrosine labelled with iodine-125, O=C([C@H](Cc1ccc(O[*:3])c([125I])c1)N[*:1])[*:2]

What was measured:
hair regrowth = conditions: aging CRF-overexpressing mice
[1] = tested on: CRF-stimulated ACTH release by cultured rat anterior pituitary cells; conditions: rat pituitary cells in culture and adrenalectomized rats
CRF-R1 = conditions: read-out: Kd of tracer at CRF-R1; saturation binding of radioligand

Compound | hair regrowth (hair regrowth) | also measured
Nc1cc(N2CCCCC2)nc(N)[n+]1[O-] [minoxidil, 2,4-pyrimidinediamine, 6-(1-piperidinyl)-, 3-oxide] | spotty results | –
CCCCN(CC)c1nc(C)nc2c1c(C)c(C)n2-c1c(C)cc(C)cc1C [antalarmin, N-butyl-N-ethyl-2,5,6-trimethyl-7-(2,4,6-trimethylphenyl)-7H-pyrrolol[2,3-d]pyrimidin-4-amine hydrochloride] | spotty results | –
[D-Phe^12,Nle^21,38]-h/rCRF(12–41) | – | potency relative to α-helical-CRF(9–41) at inhibiting release of ACTH [1]: ~ 18 times
[^125ITyr^0-Glu^1]-PD-Svg YEGTSLDLTFDLLRHNLEIAKQEALKKQAAKNRLLLDTI-NH2 ([Tyr(125I)]EGTSLDLTFDLLRHNLEIAKQEALKKQAAKNRLLLDTI-NH2) | – | Kd (CRF-R1): 0.42 nM
